From patent publication US20250195530A1, “POLQ INHIBITORS” (ASTRAZENECA AB, priority 2022, published 2025)
Where two headings read alike, the source gives them in different places.

Tests used:
[1] = system: DLD-1 cells; assay: Inhibition of proliferation, DLD-1 BRCA2 wt control (Cell Titre Glo 3D); assay type: cell-based; conditions: Homo sapiens, DLD-1, second proliferation column (c6); DLD-1 BRCA2 wt control; read-out: POLQ PD Prolif Lumin (converted)
Source text: This assay identifies anti-proliferative effects of POLQ compounds in the homologous recombination deficient colorectal cell line DLD-1 BRCA2−/− over 8-9 population doublings (7 days for DLD-1 and 12 days for DLD-1 BRCA2−/−). DLD1 BRCA2 wt are used as a control to detect cell toxic effects not specific to homologous recombination deficiency.
DLD-1 BRCA2−/− and DLD-1 cells were kept in continuous culture in Assay Medium (RPMI 1640 phenol red free (Sigma R7509) containing 1% GlutaMAX (Gibco 35050) and 10% Foetal Bovine Serum (Gibco 10270-106)). On the day of the assay cells in culture of ˜80-90% confluent were used. Cell monolayers were washed with 10 mL PBS, then removed and added 2 mL TrypLE Express (Gibco 12604). The cells with TrypLE Express were incubated for 5 minutes in cell culture incubator and then the detached cells resuspend in 15 mL Assay Medium. Cells were counted using a ViCell and the cell images were monitored for clumps of cells, ideally they should be single or <3 cell clusters. The cells were diluted to 3,000 cells/mL of DLD-1 BRCA2−/− and 1,500 cells/mL of DLD-1 in Assay Medium and 100 μL added per well of transparent bottomed, black, tissue culture-treated 96-well plates (CoStar, No. 3904) Assay Ready Plates. The Assay Ready Plates contain a 10 point 10 μM to 0.51 nM dose range with three-fold dilutions in DMSO with a final volume of 100 nL. The plates were incubated at 37° C. with 5% C02 for 6 days. On day 6, 100 μL/well of Assay Medium was added to duplicate Assay Ready Plates. 90 μL of culture medium was removed from the cell plates and replenished with the Assay Media and compounds from the duplicate Assay Ready Plates using the Bravo. The plates were further incubated at 37° C. with 5% CO2. On day 7 the plates containing DLD-1 and Cell Titre Glo 3D (Promega G9683) were equilibrated to room temperature, then 60 μL of Cell Titre Glo 3D was added per well and incubated on a shaking platform for 30 min. Plates were read on the Envision measuring luminescence for 1 second per well. On day 12 the plates containing DLD-1 BRCA2−/− cells and Cell Titre Glo 3D (Promega G9683) were equilibrated to room temperature, then 60 μL Cell Titre Glo 3D added per well and incubated on a shaking platform for 30 min. Plates were read on the Envision measuring luminescence for 1 second per well. The data was exported into a suitable software package (such as Genedata) to perform curve fitting analysis. Inhibition of cell proliferation was expressed as an IC5o value and was determined by calculation of the concentration of compound that was required to give a 50% reduction of the average maximum Total Intensity signal.

[2] = system: DLD-1 BRCA2−/− cells; assay: Homologous recombination synthetic lethal inhibition of proliferation, DLD-1 BRCA2-/- (Cell Titre Glo 3D); assay type: cell-based; conditions: for IC50: Homo sapiens; for POLQ PD Prolif Lumin BRCA2 −/− mean pIC50: DLD-1 BRCA2 −/−
Procedure, shortened: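 Luminescent Cell Titre Glo 3D readout, taken on day 12 for homologous-recombination-deficient DLD-1 BRCA2−/− and day 7 for the wild-type control, after compound refresh on day 6. Compounds spanned 10 μM to 0.51 nM in three-fold steps; IC50 defined as 50% reduction of average maximum signal.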

[3] = DLD-1, first proliferation column, DLD-1 BRCA2-/-, read-out: POLQ PD Prolif Lumin (converted)
[4] = DLD-1, DLD-1 BRCA2 −/−, mean, read-out: POLQ PD Prolif Lumin BRCA2 −/− mean pIC50 (converted)

Structure (SMILES)	IC50 [2, 3] [nM]	IC50 [2, 4] [nM]	further results
Cc1ccnc(Cn2c(-c3ccc(C4CCC(=O)N4)cc3Cl)nc3c(OC4(C)CC4)ncnc32)c1 (single isomer, unassigned) [Example T173, 5-(3-chloro-4-(6-(1-methylcyclopropoxy)-9-((4-methylpyridin-2-yl)methyl)-9H-purin-8-yl)phenyl)pyrrolidin-2-one]			IC50 [1]: > 10000 nM
Cc1ccnc(Cn2c(-c3ccc(OC4CCCNCC4)cc3Cl)nc3c(OC4(C)CC4)ncnc32)c1 (single isomer, unassigned) [Example T509, 8-(4-(azepan-4-yloxy)-2-chlorophenyl)-6-(1-methylcyclopropoxy)-9-((4-methylpyridin-2-yl)methyl)-9H-purine]			IC50 [1]: > 10000 nM
Cc1ccnc(Cn2c(-c3ccc(C(=O)N4CC(N5CCCC5)C4)cc3Cl)nc3c(OC4(C)CC4)ncnc32)c1 [Example T602, (3-chloro-4-(6-(1-methylcyclopropoxy)-9-((4-methylpyridin-2-yl)methyl)-9H-purin-8-yl)phenyl)(3-(pyrrolidin-1-yl)azetidin-1-yl)methanone]	1260		
Cc1ccnc(Cn2c(-c3ccc(CC(=O)N4CC(N5CCC5)C4)cc3Cl)nc3c(OC4(C)CC4)ncnc32)c1 [Example T603, 1-([1,3′-biazetidin]-1′-yl)-2-(3-chloro-4-(6-(1-methylcyclopropoxy)-9-((4-methylpyridin-2-yl)methyl)-9H-purin-8-yl)phenyl)ethan-1-one]	794		
CC1(Oc2ncnc3c2nc(-c2ccc(OCCN4C5CCC4CNC5)cc2Cl)n3Cc2ccccc2)CC1 [Example T605, 8-(4-(2-(3,8-diazabicyclo[3.2.1]octan-8-yl)ethoxy)-2-chlorophenyl)-9-benzyl-6-(1-methylcyclopropoxy)-9H-purine]	158		
CC(=O)N1CCN(CCOc2ccc(-c3nc4c(OC5(C)CC5)ncnc4n3Cc3cc(C)ccn3)c(Cl)c2)CC1 [Example T607, 1-(4-(2-(3-chloro-4-(6-(1-methylcyclopropoxy)-9-((4-methylpyridin-2-yl)methyl)-9H-purin-8-yl)phenoxy)ethyl)piperazin-1-yl)ethan-1-one]	126		
CC(C)(C)Oc1cccc2c1nc(-c1ccc(OCCN3CCNCC3)cc1Cl)n2Cc1cccc(Cl)c1 [Example T608, 4-(tert-butoxy)-2-(2-chloro-4-(2-(piperazin-1-yl)ethoxy)phenyl)-1-(3-chlorobenzyl)-1H-benzo[d]imidazole]	501		
Cc1ccnc(Cn2c(-c3ccc(OCCN4CCN(C)CC4)cc3Cl)nc3c(OC(C)(C)C)nccc32)c1 [Example T610, 4-(tert-butoxy)-2-(2-chloro-4-(2-(4-methylpiperazin-1-yl)ethoxy)phenyl)-1-((4-methylpyridin-2-yl)methyl)-1H-imidazo[4,5-c]pyridine]	> 7940		
CC1(Oc2cccc3c2nc(-c2ccc(OCCN4CCNCC4)cc2Cl)n3Cc2cccc(Cl)c2)CCC1 [Example T611, 2-(2-chloro-4-(2-(piperazin-1-yl)ethoxy)phenyl)-1-(3-chlorobenzyl)-4-(1-methylcyclobutoxy)-1H-benzo[d]imidazole]	316		
CC1(Oc2ncnc3c2nc(-c2ccc(OCC4(CC(=O)O)CC4)cc2Cl)n3Cc2ccccc2C#N)CC1 [Example U15, 2-(1-((3-chloro-4-(9-(2-cyanobenzyl)-6-(1-methylcyclopropoxy)-9H-purin-8-yl)phenoxy)methyl)cyclopropyl)acetic acid]		794	
CC1(Oc2ncnc3c2nc(-c2ccc(O[C@H]4CC[C@@H](C(=O)O)CC4)cc2Cl)n3Cc2ccccc2C#N)CC1 [Example U16, (1s,4s)-4-(3-chloro-4-(9-(2-cyanobenzyl)-6-(1-methylcyclopropoxy)-9H-purin-8-yl)phenoxy)cyclohexane-1-carboxylic acid]			POLQ PD Prolif Lumin BRCA2 −/− mean pIC50 ([2]; mean): 6.4
CC1(Oc2ncnc3c2nc(-c2ccc(OCCC(C)(C)C(=O)O)cc2Cl)n3Cc2ccccc2C#N)CC1 [Example U17, 4-(3-chloro-4-(9-(2-cyanobenzyl)-6-(1-methylcyclopropoxy)-9H-purin-8-yl)phenoxy)-2,2-dimethylbutanoic acid]		251	
CC1(Oc2ncnc3c2nc(-c2ccc(O[C@H]4CC[C@H](C(=O)O)CC4)cc2Cl)n3Cc2ccccc2C#N)CC1 [Example U19, (1r,4r)-4-(3-chloro-4-(9-(2-cyanobenzyl)-6-(1-methylcyclopropoxy)-9H-purin-8-yl)phenoxy)cyclohexane-1-carboxylic acid]			POLQ PD Prolif Lumin BRCA2 −/− mean pIC50 ([2]; mean): 6.6
CC1(Oc2ncnc3c2nc(-c2ccc(CCCCC(=O)O)cc2Cl)n3Cc2ccccc2C#N)CC1 [Example U20, 5-(3-chloro-4-(9-(2-cyanobenzyl)-6-(1-methylcyclopropoxy)-9H-purin-8-yl)phenyl)pentanoic acid]		251	
CC1(Oc2ncnc3c2nc(-c2ccc(OCCCC(C)(C)C(=O)O)cc2Cl)n3Cc2ccccc2C#N)CC1 [Example U21, 5-(3-chloro-4-(9-(2-cyanobenzyl)-6-(1-methylcyclopropoxy)-9H-purin-8-yl)phenoxy)-2,2-dimethylpentanoic acid]		158	
CC1(Oc2ncnc3c2nc(-c2ccc(OC[C@H]4C[C@H](C(=O)O)C4)cc2Cl)n3Cc2ccccc2C#N)CC1 [Example U27, (1r,3r)-3-((3-chloro-4-(9-(2-cyanobenzyl)-6-(1-methylcyclopropoxy)-9H-purin-8-yl)phenoxy)methyl)cyclobutane-1-carboxylic acid]			POLQ PD Prolif Lumin BRCA2 −/− mean pIC50 ([2]; mean): 6.7
CC1(Oc2ncnc3c2nc(-c2cccc(OCCC(=O)O)c2Cl)n3Cc2cc(Cl)ccc2F)CC1 [Example U32, 3-(2-chloro-3-(9-(5-chloro-2-fluorobenzyl)-6-(1-methylcyclopropoxy)-9H-purin-8-yl)phenoxy)propanoic acid]		39.8	
CC1(Oc2ncnc3c2nc(-c2ccc(O[C@H]4CC[C@@H](C(=O)O)CC4)cc2Cl)n3Cc2cc(Cl)ccc2F)CC1 [Example U44, (1s,4s)-4-(3-chloro-4-(9-(5-chloro-2-fluorobenzyl)-6-(1-methylcyclopropoxy)-9H-purin-8-yl)phenoxy)cyclohexane-1-carboxylic acid]			POLQ PD Prolif Lumin BRCA2 −/− mean pIC50 ([2]; mean): 7.2
CC1(Oc2ncnc3c2nc(-c2ccc(OCCC(C)(C)C(=O)O)cc2Cl)n3Cc2cc(Cl)ccc2F)CC1 [Example U46, 4-(3-chloro-4-(9-(5-chloro-2-fluorobenzyl)-6-(1-methylcyclopropoxy)-9H-purin-8-yl)phenoxy)-2,2-dimethylbutanoic acid]		31.6	
CC1(Oc2ncnc3c2nc(-c2ccc(O[C@H]4CC[C@H](C(=O)O)CC4)cc2Cl)n3Cc2cc(Cl)ccc2F)CC1 [Example U49, (1r,4r)-4-(3-chloro-4-(9-(5-chloro-2-fluorobenzyl)-6-(1-methylcyclopropoxy)-9H-purin-8-yl)phenoxy)cyclohexane-1-carboxylic acid]			POLQ PD Prolif Lumin BRCA2 −/− mean pIC50 ([2]; mean): 7.3
CC1(Oc2ncnc3c2nc(-c2cccc(OCC(F)(F)CC(=O)O)c2Cl)n3Cc2cccc(Cl)c2)CC1 [Example U63, 4-(2-chloro-3-(9-(3-chlorobenzyl)-6-(1-methylcyclopropoxy)-9H-purin-8-yl)phenoxy)-3,3-difluorobutanoic acid]		501	
CC1(Oc2ncnc3c2nc(-c2c(F)ccc(OCCC(=O)O)c2Cl)n3Cc2cccc(Cl)c2)CC1 [Example U66, 3-(2-chloro-3-(9-(3-chlorobenzyl)-6-(1-methylcyclopropoxy)-9H-purin-8-yl)-4-fluorophenoxy)propanoic acid]		200	
COc1ccc(F)cc1Cn1c(-c2cccc(OCC[C@H](C)C(=O)O)c2Cl)nc2c(OC3(C)CC3)ncnc21 [Example U72, (S)-4-(2-chloro-3-(9-(5-fluoro-2-methoxybenzyl)-6-(1-methylcyclopropoxy)-9H-purin-8-yl)phenoxy)-2-methylbutanoic acid]		1.58	
